Assay results published in patent US10980809B2, “Urea-substituted aromatic ring-linked dioxane-quinazoline and -linked dioxane-quinoline compounds, preparation method therefor and use thereof” (BEIJING SCITECH-MQ PHARMACEUTICALS LIMITED, priority 2017, dated 2021).

The compounds below were run against VEGFR-2 kinase (Homo sapiens (Human), UniProt P35968) (assay: Test of small molecule compounds for inhibiting the activity of VEGFR-2 kinase). Conditions: class symbols A-D.
Sequence of VEGFR-2 kinase (P35968 20-1356): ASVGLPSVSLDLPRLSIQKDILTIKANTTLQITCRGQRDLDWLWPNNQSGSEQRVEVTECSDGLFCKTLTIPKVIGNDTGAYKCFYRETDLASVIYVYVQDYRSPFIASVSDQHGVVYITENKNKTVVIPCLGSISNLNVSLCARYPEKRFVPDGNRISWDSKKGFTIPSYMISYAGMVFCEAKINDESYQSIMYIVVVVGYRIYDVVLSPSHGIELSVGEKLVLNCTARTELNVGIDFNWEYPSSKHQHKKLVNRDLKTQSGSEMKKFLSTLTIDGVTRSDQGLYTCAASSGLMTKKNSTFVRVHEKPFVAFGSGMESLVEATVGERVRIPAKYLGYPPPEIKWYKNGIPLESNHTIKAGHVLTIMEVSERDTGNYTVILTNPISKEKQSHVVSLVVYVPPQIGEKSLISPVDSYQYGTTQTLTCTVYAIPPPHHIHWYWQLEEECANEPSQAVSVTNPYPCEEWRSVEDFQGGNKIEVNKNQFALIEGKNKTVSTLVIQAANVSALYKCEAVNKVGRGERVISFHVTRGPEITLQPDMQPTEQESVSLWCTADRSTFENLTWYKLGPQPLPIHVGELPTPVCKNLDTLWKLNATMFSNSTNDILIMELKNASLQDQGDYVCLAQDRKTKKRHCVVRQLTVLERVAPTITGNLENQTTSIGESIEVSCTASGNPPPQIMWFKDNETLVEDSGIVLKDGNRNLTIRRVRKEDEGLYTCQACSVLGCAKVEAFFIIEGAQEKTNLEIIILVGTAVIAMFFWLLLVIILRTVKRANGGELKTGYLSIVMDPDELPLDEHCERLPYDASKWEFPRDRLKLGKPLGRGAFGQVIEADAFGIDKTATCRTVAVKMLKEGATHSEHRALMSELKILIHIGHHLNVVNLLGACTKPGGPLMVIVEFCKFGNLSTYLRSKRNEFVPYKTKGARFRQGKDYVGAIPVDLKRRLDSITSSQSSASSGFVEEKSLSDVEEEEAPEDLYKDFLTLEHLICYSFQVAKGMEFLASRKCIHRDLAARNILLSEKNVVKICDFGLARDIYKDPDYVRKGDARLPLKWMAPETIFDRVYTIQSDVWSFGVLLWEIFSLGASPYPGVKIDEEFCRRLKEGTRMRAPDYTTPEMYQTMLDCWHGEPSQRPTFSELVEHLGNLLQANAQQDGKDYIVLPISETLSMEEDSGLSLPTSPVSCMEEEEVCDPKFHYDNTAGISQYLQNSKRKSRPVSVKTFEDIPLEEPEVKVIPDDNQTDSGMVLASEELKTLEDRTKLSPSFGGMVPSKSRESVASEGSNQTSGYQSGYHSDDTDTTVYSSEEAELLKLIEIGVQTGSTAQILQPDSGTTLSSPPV
Format: biochemical
Experimental: Test of Small Molecule Compounds for Inhibiting the Activity of VEGFR-2 Kinase
The test was carried out as follows:
2. 2.5 μl of the gradient-diluted compounds was taken with a transfer pipette to a 384-well plate,
3. Addition of enzyme: 5 μl of 2×VEGFR-2 kinase was taken with a transfer pipette to the corresponding reaction well of the 384-well plate, which was mixed and pre-reacted at room temperature for 30 min,
5. Negative control: 2.5 μl/well 4× substrate/ATP Mix and 7.5 μl 1× Kinase Assay Buffer were added to the wells of the 384-well plate,
Positive control: 2.5 μl/well 4× substrate/ATP Mix, 2.5 μl/well 1× Kinase Assay Buffer containing 4% DMSO, and 5 μl/well 2×VEGFR-2 solution were added to the 384-well plate. The final concentration of DMSO in the reaction system is […],
6. The mixture was mixed well and then centrifuged and reacted at room temperature in dark for 60 min,
9. The 384-well plate was placed into the Envision plate reader and the signal was detected using the appropriate program,
With COc1cc2ncnc(Oc3ccc(NC(=O)Nc4ccccc4)c(Cl)c3)c2c2c1OCCO2 [Example 14, 1-(2-chloro-4-((5-methoxy-2,3-dihydro-[1,4]dioxino[2,3-f]quinazolin-10-yl)oxy)phenyl)-3-phenylurea] the IC50 was < 50 nM.
With COc1cc2ncnc(Nc3ccc(NC(=O)Nc4ccc(Oc5ccccc5)cc4)c(Cl)c3)c2c2c1OCCO2 [Example 13, 1-(2-chloro-4-((5-methoxy-2,3-dihydro-[1,4]dioxino[2,3-f]quinazolin-10-yl)amino)phenyl)-3-(4-(phenoxy)phenyl)urea] the IC50 was > 5000 nM.
An IC50 of 50 to 500 nM was found for CN(C)CCOc1cc2ncnc(Nc3ccc(NC(=O)NC4CC4)c(Cl)c3)c2c2c1OCCO2 [Example 87] in this work.
With COCCOc1cc2ncnc(Oc3ccc(NC(=O)Nc4cccc(OC)c4)cc3Cl)c2c2c1OCCO2 [Example 51, 1-(3-chloro-4-((5-(2-methoxyethoxy)-2,3-dihydro-[1,4]dioxino[2,3-f]quinazolin-10-yl)oxy)phenyl)-3-(3-methoxyphenyl)urea] the IC50 was < 50 nM.
In the case of COc1cc(NC(=O)Nc2ccc(Nc3ncnc4cc(OC)c5c(c34)OCCO5)cc2Cl)ccn1 [Example 10, 1-(2-chloro-4-((5-methoxy-2,3-dihydro-[1,4]dioxino[2,3-f]quinazolin-10-yl)amino)phenyl)-3-(2-methoxypyridin-4-yl)urea], the IC50 is reported as < 50 nM.
For COCCOc1cc2ncnc(Nc3ccc(NC(=O)Nc4ccc(F)cc4)c(Cl)c3)c2c2c1OCCO2 [Example 38, 1-(2-chloro-4-((5-(2-methoxyethoxy)-2,3-dihydro-[1,4]dioxino[2,3-f]quinazolin-10-yl)amino)phenyl)-3-(4-fluorophenyl)urea], the IC50 was < 50 nM.
In the case of COc1cccc(NC(=O)Nc2ccc(Oc3ncnc4cc(OC)c5c(c34)OCCO5)c(Cl)c2)c1 [Example 24, 1-(3-chloro-4-((5-methoxy-2,3-dihydro-[1,4]dioxino[2,3-f]quinazolin-10-yl)oxy)phenyl)-3-(3-methoxyphenyl)urea], the IC50 is reported as < 50 nM.
With COc1cc2ncnc(Nc3ccc(NC(=O)NCCC(C)C)c(Cl)c3)c2c2c1OCCO2 [Example 30, 1-(2-chloro-4-((5-methoxy-2,3-dihydro-[1,4]dioxino[2,3-f]quinazolin-10-yl)amino)phenyl)-3-isopentylurea] the IC50 was < 50 nM.
An IC50 of 50 to 500 nM was found for COc1cc2ncnc(Nc3ccc(NC(=O)NC4CCCC4)c(Cl)c3)c2c2c1OCCO2 [Example 28, 1-(2-chloro-4-((5-methoxy-2,3-dihydro-[1,4]dioxino[2,3-f]quinazolin-10-yl)amino)phenyl)-3-cyclopentylurea] in this work.
COCCOc1cc2ncnc(Nc3ccc(NC(=O)Nc4ccnc(OC)c4)c(Cl)c3)c2c2c1OCCO2 [Example 41, 1-(2-chloro-4-((5-(2-methoxyethoxy)-2,3-dihydro-[1,4]dioxino[2,3-f]quinazolin-10-yl)amino)phenyl)-3-(2-methoxypyridin-4-yl)urea] was tested, and the IC50 was < 50 nM.
In the case of COCCOc1cc2ncnc(Nc3ccc(NC(=O)Nc4ccccc4)c(Cl)c3)c2c2c1OCCO2 [Example 37, 1-(2-chloro-4-((5-(2-methoxyethoxy)-2,3-dihydro-[1,4]dioxino[2,3-f]quinazolin-10-yl)amino)phenyl)-3-phenylurea], the IC50 is reported as < 50 nM.
An IC50 of 500 to 5000 nM was found for COc1cc2ncnc(Nc3ccc(NC(=O)NC4CCCCC4)c(Cl)c3)c2c2c1OCCO2 [Example 29, 1-(2-chloro-4-((5-methoxy-2,3-dihydro-[1,4]dioxino[2,3-f]quinazolin-10-yl)amino)phenyl)-3-cyclohexylurea] in this work.
COCCOc1cc2ncnc(Oc3ccc(NC(=O)Nc4ccnc(OC)c4)cc3Cl)c2c2c1OCCO2 [Example 53, 1-(3-chloro-4-((5-(2-methoxyethoxy)-2,3-dihydro-[1,4]dioxino[2,3-f]quinazolin-10-yl)oxy)phenyl)-3-(2-methoxypyridin-4-yl)urea] was tested, and the IC50 was < 50 nM.
In the case of COCCOc1cc2ncnc(Nc3ccc(NC(=O)Nc4ccc(Oc5ccccc5)cc4)c(Cl)c3)c2c2c1OCCO2 [Example 44, 1-(2-chloro-4-((5-(2-methoxyethoxy)-2,3-dihydro-[1,4]dioxino[2,3-f]quinazolin-10-yl)amino)phenyl)-3-(4-(phenoxy)phenyl)urea], the IC50 is reported as > 5000 nM.
COc1cc2ncnc(Nc3ccc(NC(=O)Nc4ccc(C(F)(F)F)cc4F)c(Cl)c3)c2c2c1OCCO2 [Example 12, 1-(2-chloro-4-((5-methoxy-2,3-dihydro-[1,4]dioxino[2,3-f]quinazolin-10-yl)amino)phenyl)-3-(2-fluoro-4-(trifluoromethyl)phenyl)urea] was tested, and the IC50 was < 50 nM.
With COCCOc1cc2ncnc(Oc3ccc(NC(=O)NC4CCCC4)c(Cl)c3)c2c2c1OCCO2 [Example 55, 1-(2-chloro-4-((5-(2-methoxyethoxy)-2,3-dihydro-[1,4]dioxino[2,3-f]quinazolin-10-yl)oxy)phenyl)-3-cyclopentylurea] the IC50 was < 50 nM.
In the case of COCCOc1cc2ncnc(Nc3ccc(NC(=O)Nc4cccc(OC)c4)c(Cl)c3)c2c2c1OCCO2 [Example 35, 1-(2-chloro-4-((5-(2-methoxyethoxy)-2,3-dihydro-[1,4]dioxino[2,3-f]quinazolin-10-yl)amino)phenyl)-3-(3-methoxyphenyl)urea], the IC50 is reported as < 50 nM.
With COCCOc1cc2ncnc(Oc3ccc(NC(=O)NC4CCCCC4)c(Cl)c3)c2c2c1OCCO2 [Example 56, 1-(2-chloro-4-((5-(2-methoxyethoxy)-2,3-dihydro-[1,4]dioxino[2,3-f]quinazolin-10-yl)oxy)phenyl)-3-cyclohexylurea] the IC50 was < 50 nM.
For COc1cc2ncnc(Oc3ccc(NC(=O)NC4CCCCC4)c(Cl)c3)c2c2c1OCCO2 [Example 33, 1-(2-chloro-4-((5-methoxy-2,3-dihydro-[1,4]dioxino[2,3-f]quinazolin-10-yl)oxy)phenyl)-3-cyclohexylurea], the IC50 was < 50 nM.
An IC50 of 50 to 500 nM was found for COCCOc1cc2nccc(Oc3ccc(NC(=O)Nc4ccc(Cl)c(C(F)(F)F)c4)cc3F)c2c2c1OCCO2 [Example 94, 1-(4-chloro-3-(trifluoromethyl)phenyl)-3-(3-fluoro-4-((5-(2-methoxyethoxy)-2,3-dihydro-[1,4]dioxino[2,3-f]quinoline-10-yl)oxy)phenyl)urea] in this work.
With COc1cc2ncnc(Nc3ccc(NC(=O)NC4CC4)c(Cl)c3)c2c2c1OCCO2 [Example 2, 1-(2-chloro-4-((5-methoxy-2,3-dihydro-[1,4]dioxino[2,3-f]quinazolin-10-yl)amino)phenyl)-3-cyclopropylurea] the IC50 was < 50 nM.
O=C(Nc1ccc(Nc2ncnc3cc(OCCCN4CCOCC4)c4c(c23)OCCO4)cc1Cl)NC1CC1 [Example 63] was tested, and the IC50 was < 50 nM.
An IC50 of 50 to 500 nM was found for COc1cc2nccc(Oc3ccc(NC(=O)Nc4ccc(Cl)c(C(F)(F)F)c4)c(F)c3)c2c2c1OCCO2 [Example 92, 1-(4-chloro-3-(trifluoromethyl)phenyl)-3-(2-fluoro-4-((5-methoxy-2,3-dihydro-[1,4]dioxino[2,3-f]quinoline-10-yl)oxy)phenyl)urea] in this work.
In the case of COCCCOc1cc2ncnc(Oc3ccc(NC(=O)NC4CC4)c(Cl)c3)c2c2c1OCCO2 [Example 86, 1-(2-chloro-4-(((5-(3-methoxy)propoxy)-2,3-dihydro-[1,4]dioxino[2,3-f]quinazolin-10-yl)oxy)phenyl)-3-cyclopropylurea], the IC50 is reported as < 50 nM.
With O=C(Nc1ccc(Oc2ncnc3cc(OCCCN4CCOCC4)c4c(c23)OCCO4)cc1)Nc1cc(Cl)ccc1F [Example 89, 1-(2-fluoro-5-chlorophenyl)-3-(4-((5-(3-morpholinopropoxy)-2,3-dihydro-[1,4]dioxino[2,3-f]quinazolin-10-yl)oxy)phenyl)urea] the IC50 was < 50 nM.
With COc1cc2ncnc(Oc3ccc(NC(=O)NC(C)C)c(Cl)c3)c2c2c1OCCO2 [Example 15, 1-(2-chloro-4-((5-methoxy-2,3-dihydro-[1,4]dioxino[2,3-f]quinazolin-10-yl)oxy)phenyl)-3-isopropylurea] the IC50 was < 50 nM.
An IC50 of 50 to 500 nM was found for COc1cccc(NC(=O)Nc2ccc(Nc3ncnc4cc(OC)c5c(c34)OCCO5)cc2)c1 [Example 3, 1-(4-((5-methoxy-2,3-dihydro-[1,4]dioxino[2,3-f]quinazolin-10-yl)amino)phenyl)-3-(3-methoxyphenyl)urea] in this work.
COc1cc2ncnc(Oc3ccc(NC(=O)NC4CCCC4)c(Cl)c3)c2c2c1OCCO2 [Example 32, 1-(2-chloro-4-((5-methoxy-2,3-dihydro-[1,4]dioxino[2,3-f]quinazolin-10-yl)oxy)phenyl)-3-cyclopentylurea] was tested, and the IC50 was < 50 nM.
In the case of CCOc1cc2ncnc(Oc3ccc(NC(=O)Nc4cc(C(F)(F)F)ccc4F)cc3)c2c2c1OCCO2 [Example 77, 1-(4-((5-ethoxy-2,3-dihydro-[1,4]dioxino[2,3-f]quinazolin-10-yl)oxy)phenyl)-3-(2-fluoro-5-(trifluoromethyl)phenyl)urea], the IC50 is reported as < 50 nM.
In the case of O=C(Nc1ccc(Cl)c(C(F)(F)F)c1)Nc1ccc(Oc2ncnc3cc(OCCCN4CCOCC4)c4c(c23)OCCO4)cc1F [Example 69, 1-(4-chloro-3-(trifluoromethyl)phenyl)-3-(2-fluoro-4-((5-(3-morpholinopropoxy)-2,3-dihydro-[1,4]dioxino[2,3-f]quinazolin-10-yl)oxy)phenyl)urea], the IC50 is reported as < 50 nM.
An IC50 of 50 to 500 nM was found for COc1cc2ncnc(Nc3ccc(NC(=O)NC4CC4)cc3)c2c2c1OCCO2 [Example 1, 1-(4-((5-methoxy-2,3-dihydro-[1,4]dioxino[2,3-f]quinazolin-10-yl)amino)phenyl)-3-cyclopropylurea] in this work.
In the case of COCCCCCCOc1cc2ncnc(Oc3ccc(NC(=O)NC4CC4)c(Cl)c3)c2c2c1OCCO2 [Example 88], the IC50 is reported as < 50 nM.
